Experimental data: the NIST ThermoML archive (doi:10.1016/j.jct.2012.08.014)

Conditions: Liquid, Vibrating tube method

CC(O)CO (stereo unspecified) [1,2-propanediol]
mass density [kg/m3]
Conditions	278.15 K	288.15 K	298.15 K	308.15 K	318.15 K	328.15 K	338.15 K	348.15 K	358.15 K
100 kPa	1047.1	1039.9	1032.5	1025.3	1017.7	1010	1002.2	994.1	985.8
1000 kPa	1047.3	1040.2	1032.9	1025.5	1018	1010.3	1002.4	994.5	986.2
5000 kPa	1049.2	1042.1	1034.8	1027.5	1020.2	1012.7	1004.8	996.9	988.8
10000 kPa	1051.2	1044.4	1037.2	1030.1	1022.8	1015.4	1007.6	999.9	991.9
15000 kPa	1053.4	1046.7	1039.6	1032.5	1025.4	1018	1010.4	1002.8	995
20000 kPa	1055.5	1048.9	1041.9	1034.9	1027.9	1020.6	1013	1005.5	997.8
25000 kPa	1057.6	1051.1	1044.1	1037.2	1030.3	1023.1	1015.6	1008.2	1000.6
30000 kPa	1059.6	1053.2	1046.3	1039.5	1032.7	1025.6	1018.2	1010.9	1003.4
35000 kPa	1061.6	1055.4	1048.4	1041.6	1035	1027.9	1020.7	1013.4	1006
40000 kPa	1063.6	1057.4	1050.6	1043.8	1037.2	1030.3	1023.2	1016	1008.5
45000 kPa	1065.6	1059.4	1052.5	1046	1039.4	1032.5	1025.5	1018.4	1011.2
50000 kPa	1067.5	1061.4	1054.6	1048.1	1041.5	1034.7	1027.9	1020.9	1013.6
55000 kPa	1069.3	1063.4	1056.6	1050.1	1043.6	1036.9	1030.2	1023.2	1016.1
60000 kPa	1071.4	1065.3	1058.5	1052.2	1045.7	1039	1032.4	1025.6	1018.5
